Results published in patent publication US10179355B2, “Bioremediation enhancing agents and methods of use” (JRW BIOREMEDIATION, LLC, priority 2007, dated 2019).

Tests used:
Assay type in all cases: cell-based, Dehalococcoides and Dehalobacter spp.
[1] = system: dechlorinating bacteria known to convert PCE to ethene; assay: Set D: Lactic Acid Solids, PCE dechlorination microcosms (kinetics, Relative Rate)
Description: Certain contaminated materials (or sites) may contain indigenous microbial communities that are sufficient for complete bioremediation of contaminants. For such sites, there is no need to add microbes unless the indigenous microbes are genetically deficient in achieving the desired clean-up goals. For those sites that are microbiologically limited, microorganisms may be added to the contaminated materials (or sites). In one embodiment, the inoculum may be a mixed culture of halo-respiring bacteria that have been enriched to reach an optimal cell density. These mixed cultures of halo-respiring bacteria may be typically obtained from sediment samples from rivers, streams or any waterways. More specifically, the inoculum used in the Examples was originated from a Sangamon River sediment sample (Lodge Park, Piatt County, Ill.) See, e.g., Brennan, R. A., Sanford, R. A. and […]. (2006). “Biodegradation of Tetrachloroethene by Chitin Fermentation Products in a Continuous Flow Column System.” Journal of Environ. Engr., June 665-673. […] Brennan, R. A., and Sanford, R. A. (2002). “Continuous steady-state method using Tenax for delivering tetrachloroethene to chlororespiring bacteria.” Appl. Environ. […] Using 16S rRNA gene-specific primers, both Dehalococcoides and Dehalobacter spp. were detected. […] For purpose of this disclosure, each bottle may be started with a certain amount of PCE. At subsequent times each bottle may be sampled for the degradation daughter products of PCE, namely trichloroethene (TCE), cis-dichloroethene (DCE), vinyl chloride (VC) and ethene, etc. […] The rate of degradation may be determined by calculating the number of pmoles of chloride ions removed from PCE and subsequently from the amounts of the daughter products generated. The calculation may be performed as follows: […] Next, the dechlorination rate may be determined for each bottle at each time by dividing the Chloride generated by the time (days). […] This ratio is called Relative Rate and is dimensionless. As shown in the Examples, a paired t-test has been conducted to calculate the probability that the Relative Rate of one group (i.e. with Nutrient) is greater than the other group (i.e. without Nutrient). The null hypothesis is that the underlying means of the two paired groups are equal. The Probability that one group has higher Relative Rates than the other group is shown in various tables in the Examples. […] Lactic Acid Solids is a mixture of lactic acid, oligimers of lactic acid and residual sugars. […] In addition, this set was used to characterize if and to what extent the Lactic Acid Solids was an efficacious electron donor for anaerobic bioremediation of contaminants in water.

[2] = system: dechlorinating bacteria known to convert PCE to ethene; assay: Set C: Efficiency by Volatile Fatty Acid Analysis
Description: (§1) Sets B, C, D, E, and G further contain figures and tables showing results of the characterization of the Efficiency and the Relative Efficiency of electron donor usage. Efficiency may be defined as the percent of electron donor utilized for dechlorination, and may be calculated by dividing the pmoles of Chloride ion generated by the pmoles of electron donor consumed as measured by either Volatile Fatty Acid (VFA) analysis (Sets B, C, and G) or Chemical Oxygen Demand (COD) analysis (Set D and E). The Relative Efficiency of the electron donor utilization may be defined as the Efficiency of the Electron Donor divided by the Efficiency of the Lactate Control.
The method used to calculate the consumption of the electron donor measured the propionate, acetate and formate levels to calculate the consumption of electron donor over time. The lactate and propionate fermented very rapidly resulting in acetate and formate as the only measurable VFAs.

[3] = system: dechlorinating bacteria known to convert PCE to ethene; assay: Set B: Efficiency of electron donor utilization by COD analysis
Description: as §1
Table 10 and FIG. 9 show the efficiency of electron donor (e^−) utilization as measured by COD analysis. The COD analysis calculates the utilization of electron donor by measuring the starting COD and the final COD taking the difference and converting mg/L to pmoles of electrons. The pmoles of electrons used for dechlorination was determined from the calculated Chloride produced leading to an Efficiency and Relative Efficiency of electron donor utilization as compared to lactate.

CC(O)C(=O)[O-].[Na+] (stereo not drawn) [Lactate Control, sodium lactate]
Cl^− Rate ± s.d. ([1]; 0 days): 0.00 ± 0.00 µmol
Cl^− ± s.d. ([1]; 0 days): 0.00 ± 0.00 µmol
DCE ± s.d. ([1]; 0 days): 0.00 ± 0.00 µmol
Ethene ± s.d. ([1]; 0 days): 0.00 ± 0.00 µmol
PCE ± s.d. ([1]; 0 days): 19.54 ± 0.00 µmol
TCE ± s.d. ([1]; 0 days): 0.00 ± 0.00 µmol
VC ± s.d. ([1]; 0 days): 0.00 ± 0.00 µmol
Cl^− Rate ± s.d. ([1]; 22 days): 2.64 ± 0.00 µmol
Cl^− ± s.d. ([1]; 22 days): 58.02 ± 0.10 µmol
DCE ± s.d. ([1]; 22 days): 10.02 ± 0.06 µmol
Ethene ± s.d. ([1]; 22 days): 0.25 ± 0.07 µmol
PCE ± s.d. ([1]; 22 days): 0.00 ± 0.00 µmol
TCE ± s.d. ([1]; 22 days): 0.00 ± 0.00 µmol
VC ± s.d. ([1]; 22 days): 0.10 ± 0.03 µmol
Cl^− Rate ± s.d. ([1]; 36 days): 1.18 ± 0.01 µmol
Cl^− ± s.d. ([1]; 36 days): 63.68 ± 0.46 µmol
DCE ± s.d. ([1]; 36 days): 7.18 ± 0.26 µmol
Ethene ± s.d. ([1]; 36 days): 0.23 ± 0.19 µmol
PCE ± s.d. ([1]; 36 days): 0.00 ± 0.00 µmol
TCE ± s.d. ([1]; 36 days): 0.01 ± 0.02 µmol
VC ± s.d. ([1]; 36 days): 0.08 ± 0.01 µmol
Cl^− Rate ± s.d. ([1]; 50 days): 1.29 ± 0.06 µmol
Cl^− ± s.d. ([1]; 50 days): 64.63 ± 2.77 µmol
DCE ± s.d. ([1]; 50 days): 4.98 ± 0.67 µmol
Ethene ± s.d. ([1]; 50 days): 0.20 ± 0.09 µmol
PCE ± s.d. ([1]; 50 days): 0.00 ± 0.00 µmol
TCE ± s.d. ([1]; 50 days): 0.00 ± 0.00 µmol
VC ± s.d. ([1]; 50 days): 3.57 ± 1.88 µmol
Estimated % Efficiency [2]: 2.55%
Relative Efficiency ([2]; relative to Lactate Control): 1.00
% of e^− used for dechlor. [3]: 13.1%
Chloride ([3]; Efficiency by COD analysis): 77.16 pmol
Relative Efficiency ([3]; relative to Lactate Control): 100%
